Columns and labels:
Assay in all cases: radiometric filter-binding kinase assay
[1] = test system: AKT2 (human), P31751 [S474D]
BRSK1 (human) = BRSK1 (human) (UniProt Q8TDC3)
CAMKK2 (human) = CAMKK2 (human) (UniProt Q96RR4); details: compound 10.0 µM
CLK2 (human) = CLK2 (human) (UniProt P49760)
CSK (human) = CSK (human) (UniProt P41240)
CSNK1D (human) = CSNK1D (human) (UniProt P48730)
DYRK3 (human) = DYRK3 (human) (UniProt O43781)
FGFR1 (human) = FGFR1 (human) (UniProt P11362)
FLT1 (human) = FLT1 (human) (UniProt P17948)
GSK3B (human) = GSK3B (human) (UniProt P49841)
HIPK1 (human) = HIPK1 (human) (UniProt Q86Z02)
HIPK3 (human) = HIPK3 (human) (UniProt Q9H422)
IGF1R (human) = IGF1R (human) (UniProt P08069); details: compound 10.0 µM
INSR (human) = INSR (human) (UniProt P06213)
IRAK4 (human) = IRAK4 (human) (UniProt Q9NWZ3)
JAK2 JH1 JH2 (human) = JAK2 JH1 JH2 (human) (UniProt O60674)
LCK (mouse) = details: accession and sequence are those of the human protein
MAP3K1 (human) = MAP3K1 (human) (UniProt Q13233)
MAP3K7 TAB1 (human) = MAP3K7 TAB1 (human) (UniProt Q15750+O43318)
MAPK11 (human) = MAPK11 (human) (UniProt Q15759)
MAPK14 (human) = MAPK14 (human) (UniProt Q16539)
MAPK15 (human) = MAPK15 (human) (UniProt Q8TD08)
MAPKAPK5 (human) = MAPKAPK5 (human) (UniProt Q8IW41)
MARK1 (human) = MARK1 (human) (UniProt Q9P0L2)
MELK (human) = MELK (human) (UniProt Q14680)
MINK1 (human) = MINK1 (human) (UniProt Q8N4C8)
NTRK1 (human) = NTRK1 (human) (UniProt P04629)
PRKCZ (human) = PRKCZ (human) (UniProt Q05513)
RIPK2 (human) = RIPK2 (human) (UniProt O43353)
ROCK2 (rat) = details: accession and sequence are those of the human protein
RPS6KA3 KD1 KD2 (human) = RPS6KA3 KD1 KD2 (human) (UniProt P51812); details: compound 10.0 µM
SRC (human) = SRC (human) (UniProt P12931)
[2] = molecular target: STK11 CAB39 STRADA (human) (UniProt Q9Y376+Q7RTN6+Q15831)
TAOK1 (human) = TAOK1 (human) (UniProt Q7L7X3)
EPHA2 (human) = EPHA2 (human) (UniProt P29317)

MAP3K7 TAB1 (human), sequence (O43318 whole entry, looked up): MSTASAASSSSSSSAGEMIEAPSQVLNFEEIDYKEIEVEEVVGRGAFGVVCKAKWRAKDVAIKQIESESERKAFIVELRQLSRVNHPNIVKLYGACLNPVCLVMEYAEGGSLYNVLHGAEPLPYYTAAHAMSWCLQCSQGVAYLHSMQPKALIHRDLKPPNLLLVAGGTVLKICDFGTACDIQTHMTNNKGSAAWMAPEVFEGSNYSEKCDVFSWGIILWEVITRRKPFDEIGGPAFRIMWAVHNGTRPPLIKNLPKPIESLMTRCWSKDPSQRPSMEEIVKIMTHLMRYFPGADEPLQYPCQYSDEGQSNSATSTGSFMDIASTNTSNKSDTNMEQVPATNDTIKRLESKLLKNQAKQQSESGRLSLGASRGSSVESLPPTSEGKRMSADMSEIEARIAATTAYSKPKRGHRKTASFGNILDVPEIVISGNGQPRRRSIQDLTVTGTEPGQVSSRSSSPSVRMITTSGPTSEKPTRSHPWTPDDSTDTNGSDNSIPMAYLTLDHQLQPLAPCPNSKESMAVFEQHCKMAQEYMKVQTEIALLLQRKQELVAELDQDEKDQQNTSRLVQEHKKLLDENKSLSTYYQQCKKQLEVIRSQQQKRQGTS
MAP3K7 TAB1 (human), sequence (Q15750 whole entry, looked up): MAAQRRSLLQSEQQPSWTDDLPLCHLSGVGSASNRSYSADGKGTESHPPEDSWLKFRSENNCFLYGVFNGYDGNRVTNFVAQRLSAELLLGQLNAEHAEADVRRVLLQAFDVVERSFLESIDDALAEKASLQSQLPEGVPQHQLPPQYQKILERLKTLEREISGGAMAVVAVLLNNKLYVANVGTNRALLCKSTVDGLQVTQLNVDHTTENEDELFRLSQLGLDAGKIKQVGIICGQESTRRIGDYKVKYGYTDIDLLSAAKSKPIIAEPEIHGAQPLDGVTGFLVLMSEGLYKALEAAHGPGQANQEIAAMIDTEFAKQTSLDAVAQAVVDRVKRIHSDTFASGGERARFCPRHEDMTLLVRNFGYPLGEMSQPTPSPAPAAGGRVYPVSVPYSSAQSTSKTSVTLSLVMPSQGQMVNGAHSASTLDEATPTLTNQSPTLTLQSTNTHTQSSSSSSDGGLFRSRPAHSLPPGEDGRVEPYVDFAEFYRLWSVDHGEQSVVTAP
PRKCZ (human), sequence (Q05513 whole entry, looked up): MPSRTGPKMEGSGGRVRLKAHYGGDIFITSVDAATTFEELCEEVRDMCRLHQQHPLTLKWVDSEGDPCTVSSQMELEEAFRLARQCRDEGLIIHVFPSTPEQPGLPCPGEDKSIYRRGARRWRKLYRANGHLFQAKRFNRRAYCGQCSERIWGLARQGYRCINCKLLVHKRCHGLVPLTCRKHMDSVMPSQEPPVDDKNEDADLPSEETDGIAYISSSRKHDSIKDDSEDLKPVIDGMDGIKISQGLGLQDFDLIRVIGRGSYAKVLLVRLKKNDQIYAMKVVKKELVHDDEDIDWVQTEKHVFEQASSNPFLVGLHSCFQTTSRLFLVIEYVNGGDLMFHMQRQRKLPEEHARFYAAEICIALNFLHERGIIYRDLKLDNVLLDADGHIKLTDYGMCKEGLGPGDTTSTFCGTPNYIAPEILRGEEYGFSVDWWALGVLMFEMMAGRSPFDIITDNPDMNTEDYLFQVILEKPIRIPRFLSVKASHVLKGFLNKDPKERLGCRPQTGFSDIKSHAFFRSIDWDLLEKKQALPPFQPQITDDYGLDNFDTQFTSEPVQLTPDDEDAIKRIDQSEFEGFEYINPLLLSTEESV
CLK2 (human), sequence (P49760 whole entry, looked up): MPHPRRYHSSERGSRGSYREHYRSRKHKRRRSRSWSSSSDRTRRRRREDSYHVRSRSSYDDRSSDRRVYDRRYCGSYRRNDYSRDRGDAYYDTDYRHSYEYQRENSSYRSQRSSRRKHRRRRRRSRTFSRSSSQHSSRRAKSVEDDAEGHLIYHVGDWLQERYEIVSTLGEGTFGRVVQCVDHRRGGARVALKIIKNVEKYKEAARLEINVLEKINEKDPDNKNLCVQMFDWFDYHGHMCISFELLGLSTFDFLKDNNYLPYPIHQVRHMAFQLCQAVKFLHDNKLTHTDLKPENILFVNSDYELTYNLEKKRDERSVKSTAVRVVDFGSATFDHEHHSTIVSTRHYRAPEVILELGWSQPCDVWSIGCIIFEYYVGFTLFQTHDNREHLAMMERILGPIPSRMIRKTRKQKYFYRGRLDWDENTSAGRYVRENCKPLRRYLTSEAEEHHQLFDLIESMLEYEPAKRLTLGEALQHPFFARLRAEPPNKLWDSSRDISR
TAOK1 (human), sequence (Q7L7X3 whole entry, looked up): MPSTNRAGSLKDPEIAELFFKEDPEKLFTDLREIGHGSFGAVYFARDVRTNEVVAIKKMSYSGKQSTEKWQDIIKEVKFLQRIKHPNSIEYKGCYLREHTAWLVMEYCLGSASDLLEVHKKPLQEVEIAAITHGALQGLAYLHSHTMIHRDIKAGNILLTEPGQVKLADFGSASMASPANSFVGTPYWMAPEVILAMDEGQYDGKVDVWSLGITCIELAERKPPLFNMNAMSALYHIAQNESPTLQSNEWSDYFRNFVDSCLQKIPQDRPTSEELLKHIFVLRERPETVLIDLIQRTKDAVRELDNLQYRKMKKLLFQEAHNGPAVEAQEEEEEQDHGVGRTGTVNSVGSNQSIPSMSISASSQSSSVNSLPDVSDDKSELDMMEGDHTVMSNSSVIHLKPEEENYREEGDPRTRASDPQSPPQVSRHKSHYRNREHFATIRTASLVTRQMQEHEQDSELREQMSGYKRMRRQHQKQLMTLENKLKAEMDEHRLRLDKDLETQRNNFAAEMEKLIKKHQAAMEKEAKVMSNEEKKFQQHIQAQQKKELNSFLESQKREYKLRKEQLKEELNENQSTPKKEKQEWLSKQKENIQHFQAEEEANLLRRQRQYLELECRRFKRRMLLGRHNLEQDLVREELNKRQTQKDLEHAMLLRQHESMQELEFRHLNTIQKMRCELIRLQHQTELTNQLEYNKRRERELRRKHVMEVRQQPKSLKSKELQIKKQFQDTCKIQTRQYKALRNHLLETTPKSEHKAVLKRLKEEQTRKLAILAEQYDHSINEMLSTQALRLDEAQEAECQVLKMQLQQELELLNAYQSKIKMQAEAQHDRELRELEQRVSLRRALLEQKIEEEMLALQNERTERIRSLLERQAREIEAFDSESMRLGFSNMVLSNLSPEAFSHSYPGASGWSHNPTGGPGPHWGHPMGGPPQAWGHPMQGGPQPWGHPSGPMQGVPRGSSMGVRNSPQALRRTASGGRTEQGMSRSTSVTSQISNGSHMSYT
BRSK1 (human), sequence (Q8TDC3 whole entry, looked up): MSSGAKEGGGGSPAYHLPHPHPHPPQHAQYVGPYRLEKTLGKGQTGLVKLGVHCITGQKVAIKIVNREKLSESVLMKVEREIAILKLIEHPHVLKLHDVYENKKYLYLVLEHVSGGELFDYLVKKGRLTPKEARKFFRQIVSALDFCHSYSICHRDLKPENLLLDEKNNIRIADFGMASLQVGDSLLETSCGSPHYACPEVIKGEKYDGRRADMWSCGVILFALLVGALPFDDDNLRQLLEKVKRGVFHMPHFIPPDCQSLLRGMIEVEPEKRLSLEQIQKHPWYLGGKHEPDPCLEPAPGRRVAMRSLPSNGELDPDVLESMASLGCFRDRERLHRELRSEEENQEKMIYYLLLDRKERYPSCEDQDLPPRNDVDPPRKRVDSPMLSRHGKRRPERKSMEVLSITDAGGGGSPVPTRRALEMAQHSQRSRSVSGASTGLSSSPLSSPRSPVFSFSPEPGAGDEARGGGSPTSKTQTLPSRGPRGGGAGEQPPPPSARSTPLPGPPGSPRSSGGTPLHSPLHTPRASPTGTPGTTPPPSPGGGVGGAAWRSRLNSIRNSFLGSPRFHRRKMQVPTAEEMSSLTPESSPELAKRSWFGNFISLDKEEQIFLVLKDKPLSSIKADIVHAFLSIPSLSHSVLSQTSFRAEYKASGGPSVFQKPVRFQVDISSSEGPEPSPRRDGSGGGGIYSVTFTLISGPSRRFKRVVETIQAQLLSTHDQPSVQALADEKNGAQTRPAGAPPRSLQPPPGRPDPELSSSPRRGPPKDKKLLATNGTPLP
GSK3B (human), sequence (P49841 whole entry, looked up): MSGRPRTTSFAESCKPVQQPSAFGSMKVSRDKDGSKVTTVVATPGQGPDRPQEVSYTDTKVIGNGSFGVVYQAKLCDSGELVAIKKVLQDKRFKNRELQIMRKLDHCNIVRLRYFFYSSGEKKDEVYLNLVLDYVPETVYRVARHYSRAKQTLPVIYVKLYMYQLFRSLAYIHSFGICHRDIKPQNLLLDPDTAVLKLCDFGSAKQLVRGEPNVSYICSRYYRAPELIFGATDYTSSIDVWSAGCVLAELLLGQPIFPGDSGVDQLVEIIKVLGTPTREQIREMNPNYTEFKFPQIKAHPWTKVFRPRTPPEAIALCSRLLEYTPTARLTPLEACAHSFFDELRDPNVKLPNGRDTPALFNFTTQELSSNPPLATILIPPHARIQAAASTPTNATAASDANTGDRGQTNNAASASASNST
SRC (human), sequence (P12931 whole entry, looked up): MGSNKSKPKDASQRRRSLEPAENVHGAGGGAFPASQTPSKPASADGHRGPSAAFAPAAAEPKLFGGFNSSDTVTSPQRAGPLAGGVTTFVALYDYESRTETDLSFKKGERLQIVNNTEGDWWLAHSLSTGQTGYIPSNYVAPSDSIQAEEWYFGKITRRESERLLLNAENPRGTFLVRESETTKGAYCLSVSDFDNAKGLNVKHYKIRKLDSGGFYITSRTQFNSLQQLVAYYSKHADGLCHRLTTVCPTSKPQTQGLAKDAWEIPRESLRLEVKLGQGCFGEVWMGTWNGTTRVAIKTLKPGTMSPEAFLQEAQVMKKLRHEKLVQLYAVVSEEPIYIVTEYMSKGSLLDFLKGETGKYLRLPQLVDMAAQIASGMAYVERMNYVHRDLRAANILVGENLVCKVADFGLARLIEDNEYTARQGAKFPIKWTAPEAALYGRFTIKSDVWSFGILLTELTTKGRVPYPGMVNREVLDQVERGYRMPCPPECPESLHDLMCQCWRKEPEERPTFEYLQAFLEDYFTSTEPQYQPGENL

Compound `O=S(=O)(c1ccc(F)c2nonc12)N1CCN(c2ncc(C(F)(F)F)cc2Cl)CC1` has a residual activity ([1]; compound 10.0 µM) of 84%, a residual activity (BRSK1 (human); compound 10.0 µM) of 109% and a residual activity (CAMKK2 (human)) of 83%. The residual activity (CLK2 (human); compound 10.0 µM) was 95%, the residual activity (CSK (human); compound 10.0 µM) was 90% and the residual activity (CSNK1D (human); compound 10.0 µM) was 79%. It also gave a residual activity (DYRK3 (human); compound 10.0 µM) of 91%, a residual activity (FGFR1 (human); compound 10.0 µM) of 106% and a residual activity (FLT1 (human); compound 10.0 µM) of 78%. It also gave a residual activity (GSK3B (human); compound 10.0 µM) of 85%, a residual activity (HIPK1 (human); compound 10.0 µM) of 94% and a residual activity (HIPK3 (human); compound 10.0 µM) of 101%. For the same compound, the residual activity (IGF1R (human)) was 93%, the residual activity (INSR (human); compound 10.0 µM) was 93% and the residual activity (IRAK4 (human); compound 10.0 µM) was 66%. The residual activity (JAK2 JH1 JH2 (human); compound 10.0 µM) was 97%, the residual activity (LCK (mouse); compound 10.0 µM) was 93% and the residual activity (MAP3K1 (human); compound 10.0 µM) was 85%. The residual activity (MAP3K7 TAB1 (human); compound 10.0 µM) was 98%, the residual activity (MAPK11 (human); compound 10.0 µM) was 101% and the residual activity (MAPK14 (human); compound 10.0 µM) was 74%. It also gave a residual activity (MAPK15 (human); compound 10.0 µM) of 79%, a residual activity (MAPKAPK5 (human); compound 10.0 µM) of 85% and a residual activity (MARK1 (human); compound 10.0 µM) of 109%. For the same compound, the residual activity (MELK (human); compound 10.0 µM) was 107%, the residual activity (MINK1 (human); compound 10.0 µM) was 89% and the residual activity (NTRK1 (human); compound 10.0 µM) was 103%. It also gave a residual activity (PRKCZ (human); compound 10.0 µM) of 94%, a residual activity (RIPK2 (human); compound 10.0 µM) of 109% and a residual activity (ROCK2 (rat); compound 10.0 µM) of 95%. The residual activity (RPS6KA3 KD1 KD2 (human)) was 86%, the residual activity (SRC (human); compound 10.0 µM) was 111% and the residual activity ([2]; compound 10.0 µM) was 97%. It also gave a residual activity (TAOK1 (human); compound 10.0 µM) of 98%.
`NCC(=O)Nc1ccc(-n2nc(C(F)(F)F)cc2-c2ccc3c(ccc4ccccc43)c2)cc1` was tested, and the residual activity ([1]; compound 1.0 µM) was 87%, the residual activity ([1]; compound 10.0 µM) was 54% and the residual activity (BRSK1 (human); compound 1.0 µM) was 83%. The residual activity (BRSK1 (human); compound 10.0 µM) was 89%, the residual activity (CAMKK2 (human)) was 115% and the residual activity (CLK2 (human); compound 1.0 µM) was 93%. For the same compound, the residual activity (CLK2 (human); compound 10.0 µM) was 64%, the residual activity (CSK (human); compound 1.0 µM) was 97% and the residual activity (CSK (human); compound 10.0 µM) was 85%. For the same compound, the residual activity (CSNK1D (human); compound 1.0 µM) was 96%, the residual activity (CSNK1D (human); compound 10.0 µM) was 93% and the residual activity (DYRK3 (human); compound 1.0 µM) was 108%. For the same compound, the residual activity (EPHA2 (human); compound 1.0 µM) was 92%, the residual activity (EPHA2 (human); compound 10.0 µM) was 94% and the residual activity (FGFR1 (human); compound 1.0 µM) was 111%. For the same compound, the residual activity (FLT1 (human); compound 1.0 µM) was 79%, the residual activity (FLT1 (human); compound 10.0 µM) was 89% and the residual activity (GSK3B (human); compound 1.0 µM) was 110%. It also gave a residual activity (GSK3B (human); compound 10.0 µM) of 119%, a residual activity (HIPK1 (human); compound 1.0 µM) of 104% and a residual activity (HIPK1 (human); compound 10.0 µM) of 90%. For the same compound, the residual activity (HIPK3 (human); compound 1.0 µM) was 94%, the residual activity (HIPK3 (human); compound 10.0 µM) was 64% and the residual activity (IGF1R (human)) was 105%. For the same compound, the residual activity (INSR (human); compound 1.0 µM) was 98%, the residual activity (INSR (human); compound 10.0 µM) was 94% and the residual activity (IRAK4 (human); compound 1.0 µM) was 84%. For the same compound, the residual activity (IRAK4 (human); compound 10.0 µM) was 79%, the residual activity (JAK2 JH1 JH2 (human); compound 1.0 µM) was 101% and the residual activity (LCK (mouse); compound 1.0 µM) was 84%. It also gave a residual activity (LCK (mouse); compound 10.0 µM) of 247%, a residual activity (MAP3K1 (human); compound 1.0 µM) of 93% and a residual activity (MAP3K1 (human); compound 10.0 µM) of 103%. For the same compound, the residual activity (MAP3K7 TAB1 (human); compound 1.0 µM) was 74%, the residual activity (MAP3K7 TAB1 (human); compound 10.0 µM) was 36% and the residual activity (MAPK11 (human); compound 1.0 µM) was 92%. It also gave a residual activity (MAPK11 (human); compound 10.0 µM) of 95%, a residual activity (MAPK14 (human); compound 1.0 µM) of 100% and a residual activity (MAPK14 (human); compound 10.0 µM) of 80%. The residual activity (MAPK15 (human); compound 1.0 µM) was 79%, the residual activity (MAPK15 (human); compound 10.0 µM) was 75% and the residual activity (MAPKAPK5 (human); compound 1.0 µM) was 89%. For the same compound, the residual activity (MAPKAPK5 (human); compound 10.0 µM) was 76%, the residual activity (MARK1 (human); compound 1.0 µM) was 87% and the residual activity (MARK1 (human); compound 10.0 µM) was 79%. It also gave a residual activity (MELK (human); compound 1.0 µM) of 92%, a residual activity (MELK (human); compound 10.0 µM) of 75% and a residual activity (MINK1 (human); compound 1.0 µM) of 78%. The residual activity (MINK1 (human); compound 10.0 µM) was 47%, the residual activity (NTRK1 (human); compound 1.0 µM) was 90% and the residual activity (NTRK1 (human); compound 10.0 µM) was 90%. The residual activity (PRKCZ (human); compound 1.0 µM) was 94%, the residual activity (PRKCZ (human); compound 10.0 µM) was 61% and the residual activity (RIPK2 (human); compound 1.0 µM) was 93%. For the same compound, the residual activity (RIPK2 (human); compound 10.0 µM) was 81%, the residual activity (ROCK2 (rat); compound 1.0 µM) was 88% and the residual activity (ROCK2 (rat); compound 10.0 µM) was 87%. For the same compound, the residual activity (SRC (human); compound 1.0 µM) was 103%, the residual activity (SRC (human); compound 10.0 µM) was 135% and the residual activity ([2]; compound 1.0 µM) was 103%. The residual activity ([2]; compound 10.0 µM) was 99%, the residual activity (TAOK1 (human); compound 1.0 µM) was 103% and the residual activity (TAOK1 (human); compound 10.0 µM) was 92%.

Reference: the kinase profiling compilation of Christmann-Franck et al. (2016)
